From patent publication US9745360B2 (Sanofi, priority 2012, dated 2017)
*1 amine or outer side, *2 acyl side, *3 side chain or, on linkers, in order; H or OH if unused. Where a SMILES comes first, the peptide text is derived from it. Side-chain parts run from the residue outwards. [ ]: non-standard residue; d: D form. The star is where a group is joined. γGlu = O=C(O)[C@H](CCC(=O)[*:2])N[*:1]; Palmitoyl = CCCCCCCCCCCCCCCC(=O)*; αMeK = C[C@](N)(CCCCN)C(=O)O; Aib = CC(C)(N)C(=O)O

Assays:
[1] = Chemical stability in solution, 7 days at 25° C., % remaining peptide; type: physicochemical; details: % remaining peptide after 7 days at 25° C.
Experimental: The chemical stability is expressed as “% remaining peptide”.
Solubility and chemical stability of peptidic compounds were assessed as described in Methods.

[2] = Pharmacokinetic testing in female Göttinger minipigs, s.c., LC/MS of plasma; type: in vivo; details: minipig, sc, Mini pigs, 0.1 mg/kg s.c.
Experimental: Pharmacokinetic profiles were determined as described in Methods.

[3] = Subchronic effect on body weight in female diet-induced obese (DIO) C57BL/6NCrl mice (method 2); type: in vivo; details: for Overall weight change: 3-week treatment, mean ± SEM; for decrease of body weight, relative change from baseline: 3 weeks
Experimental: Female C57BL/6NCrl mice were housed in groups in a specific pathogen-free barrier facility on a 12 h light/dark cycle with free access to water and high-fat diet. After 14 weeks on high-fat diet, mice were stratified to treatment groups (n=8), so that each group had similar mean body weight. An aged-matched group with ad libitum access to standard chow and water was included as standard control group.
Before the experiment, mice were subcutaneously (s.c.) injected with vehicle solution and weighed for 3 days to acclimate them to the procedures. […] Body weight was recorded daily.
Statistical analyses were performed with Everstat 6.0 by repeated measures two-way ANOVA and Dunnett's post-hoc analyses (glucose profile) and 1-way-ANOVA, followed by Dunnett's post-hoc test (body weight, body fat). Differences versus vehicle-treated DIO control mice were considered statistically significant at the p<0.05 level.
Subchronic effects of SEQ ID NO: 11 after subcutaneous treatment on body weight in female diet-induced obese (DIO) C57BL/6NCrl mice (14 weeks of prefeeding with high-rat diet, method 2)
Female obese C57BL/6NCrl mice were treated for 3 weeks once daily subcutaneously in the late afternoon, prior at the end of the light phase (12 h lights on) with 3 μg/kg and 10 μg/kg SEQ ID NO: 11 or vehicle. Body weight was recorded daily.

[4] = test system: female diabetic dbdb-mice; assay: 4 weeks of treatment: glucose, HbA1c and oral glucose tolerance in female diabetic dbdb-mice (method 4); type: in vivo; details: 3 and 10 μg/kg s.c. once daily
Experimental: 8 week old, female diabetic dbdb-mice of mean non-fasted glucose value of 14.5 mmol/l and a body weight of 37-40 g were used. Mice were individually marked and were adapted to housing conditions for at least one week. 7 days prior to study start, baseline values for non-fasted glucose and HbA1c were determined, 5 days prior to study start, mice were assigned to groups and cages (5 mice per cage, 10 per group) according to their HbA1c values to ensure even distribution of lower and higher values between groups (stratification).
Mice were treated for 4 weeks, by once daily subcutaneous administration 3 hours prior to the dark phase (6 pm to 6 am). Blood samples from a tail tip incision were obtained for HbA1c on study day 21 and oral glucose tolerance was assessed in the 4th week. Oral glucose tolerance test was done in the morning without prior extra compound administration to majorly assess the effect of chronic treatment and less of acute compound administration. Mice were fasted for 4 hours prior to oral glucose administration (2 g/kg, t=0 min). Blood samples were drawn prior to glucose administration and at 15, 30, 60, 90, 120, and 180 min thereafter. Feed was returned after the last blood sampling. Results are represented as change from baseline, glucose in mmol/l and HbA1c in %.
Statistical analyses are performed with Everstat Version 6.0 based on SAS by 1-way-ANOVA, followed by Dunnett's post-hoc test against vehicle-control. Differences are considered statistically significant at the p<0.05 level.
Female dbdb-mice, received 3 and 10 μg/kg of SEQ ID NO: 11 or phosphate buffered saline (vehicle control) once daily, subcutaneously over four weeks. […] (FIG. 3).

female NMRI-mice = assay: Gastric emptying and intestinal passage in female NMRI-mice; type: in vivo
Experimental: Female NMRI-mice of a body weight between 20 and 30 g were used. Mice were adapted to housing conditions for at least one week.
Mice were overnight fasted, while water remained available all the time. On the study day, mice were weighed, single-caged and allowed access to 500 mg of feed for 30 min, while water was removed. At the end of the 30 min feeding period, remaining feed was removed and weighed. Then, the test compound/reference compound or its vehicle in the control group was administered subcutaneously. 60 min later, to allow the compound to reach relevant plasma exposure, a coloured, non-caloric bolus was instilled via gavage into the stomach. After another 30 min, the animals were sacrificed and the stomach and the small intestine prepared. The filled stomach was weighed, emptied, carefully cleaned and dried and reweighed. The stomach content, calculated as weight of filled subtracted by the weight of emptied stomach, indicated the degree of gastric emptying. The small intestine was straightened without force and measured in length. Then the distance from the gastric beginning of the gut to the tip of the farthest travelled intestinal content bolus was measured. The intestinal passage was given as ratio in percent of the latter distance and the total length of the small intestine.
Statistical analyses were performed with Everstat 6.0 by 1-way-ANOVA, followed by Dunnett's as post-hoc test. Dunnett's Test was applied to compare versus vehicle control. Differences were considered statistically significant at the p<0.05 level.
Female NMRI-mice, weighing on average 25-30 g, received 1, 10 and 100 μg/kg of SEQ ID NO: 11, or phosphate buffered saline (vehicle control) subcutaneously, 30 min prior to the administration of the coloured bolus. 30 min later, the assessment of stomach contents and intestinal passage was done (FIG. 8).

In the case of `CCCCCCCCCCCCCCCC(=O)N[C@@H](CCC(=O)NCCCC[C@H](NC(=O)[C@H](CCC(N)=O)NC(=O)[C@@H](NC(=O)[C@H](CO)NC(=O)[C@H](CC(C)C)NC(=O)[C@H](CC(=O)O)NC(=O)[C@H](CO)NC(=O)[C@@H](NC(=O)[C@H](Cc1ccccc1)NC(=O)[C@@H](NC(=O)CNC(=O)[C@H](CCC(=O)O)NC(=O)C(C)(C)NC(=O)[C@@H](N)Cc1ccc(O)cc1)[C@@H](C)O)[C@@H](C)O)[C@@H](C)CC)C(=O)N[C@@H](CCC(=O)O)C(=O)N[C@@H](CCC(=O)O)C(=O)N[C@@H](CCCNC(=N)N)C(=O)N[C@@H](C)C(=O)N[C@@H](C)C(=O)N[C@@](C)(CCCCN)C(=O)N[C@@H](CCC(=O)O)C(=O)N[C@@H](Cc1ccccc1)C(=O)N[C@H](C(=O)N[C@@H](CCC(=O)O)C(=O)N[C@@H](Cc1c[nH]c2ccccc12)C(=O)N[C@@H](CC(C)C)C(=O)N[C@@H](CCCCN)C(=O)N[C@@H](CC(N)=O)C(=O)N[C@H](C(=O)NCC(=O)N1CCC[C@H]1C(=O)N[C@@H](CO)C(=O)N[C@@H](CO)C(=O)NCC(=O)N[C@@H](C)C(=O)N1CCC[C@H]1C(=O)N1CCC[C@H]1C(=O)N1CCC[C@H]1C(=O)N[C@@H](CO)C(N)=O)[C@@H](C)O)[C@@H](C)CC)C(=O)O` [SEQ ID NO: 11, Y-Aib-E-G-T-F-T-S-D-L-S-I-Q-K(γE-x53)-E-E-R-A-A-(S)MeLys-E-F-I-E-W-L-K-N-T-G-P-S-S-G-A-P-P-P-S-NH2] (H-Y[Aib]EGTFTSDLSIQK([γGlu-Palmitoyl])EERAA[αMeK]EFIEWLKNTGPSSGAPPPS-NH2), the “Stability (pH 4.5)” value ([1]; pH 4.5) is reported as 100.0%, the “Stability (pH 7.4)” value ([1]; pH 7.4) is reported as 99.0% and the Cmax [2] is reported as 302 ng/mL. For the same compound, the half-life [2] was 12.6 h, the Overall weight change ([3]; 3 μg/kg s.c. once daily) was -3.2 ± 0.6 g and the “decrease of body weight, relative change from baseline” value ([3]; 3 μg/kg s.c. once daily) was 7.6%. For the same compound, the Overall weight change ([3]; 10 μg/kg s.c. once daily) was -6.8 ± 0.7 g, the “decrease of body weight, relative change from baseline” value ([3]; 10 μg/kg s.c. once daily) was 17.4% and the oral glucose tolerance ([4]; 4th week, 2 g/kg oral glucose) was “improved oral glucose tolerance”. For the same compound, the “non-fasted glucose compared to vehicle control” value ([4]; four weeks) was “reduced statistically significant”, the “HbA1c compared to vehicle control” value ([4]; four weeks, p<0.05) was “prevented an increase of HbA1c in a statistical significant manner” and the “reduction of AUC under the glucose curve compared to vehicle control” value ([4]; oral glucose tolerance test, p<0.05) was “reached statistical significance”. The “increase of remaining gastric contents” value (female NMRI-mice; 1 μg/kg s.c.) was 17%, the “reduction of intestinal passage” value (female NMRI-mice; 1 μg/kg s.c.) was 44% and the “increase of remaining gastric contents” value (female NMRI-mice; 10 μg/kg s.c.) was 97%. For the same compound, the “reduction of intestinal passage” value (female NMRI-mice; 10 μg/kg s.c.) was 68%, the “increase of remaining gastric contents” value (female NMRI-mice; 100 μg/kg s.c.) was 106% and the “reduction of intestinal passage” value (female NMRI-mice; 100 μg/kg s.c.) was 69%.
